Measurements taken from patent publication US12377100B2 (GILEAD SCIENCES, INC., priority 2015, dated 2025).

Tests used:
Assay type in all cases: cell-based
Conditions in all cases: human PBMCs, 24 hours incubation
TNFα = assay: PBMC cytokine profiling assay, TNFα induction
Experimental: (§1) Certain compounds disclosed herein we tested according to the procedure described below. Additionally, certain reference compounds were prepared and tested along with the compounds of the present disclosure.
(§2) Compounds were dissolved and stored in DMSO (Sigma-Aldrich, St. Louis, MO) at 10 mM concentration.
(§3) Cryopreserved human PBMCs isolated from healthy donors were purchased from StemCell Technologies (Vancouver, Canada). Cell culture medium used was RPMI with L-Glutamine (Mediatech, Manassas, VA) supplemented with 10% fetal bovine serum (Hyclone, GE Healthcare, Logan, UT) and Penicillin-Streptomycin (Mediatech). Human TNFα, IL12p40, and IFNα2a 384-well Assay capture plates, standards, buffers and processing reagents were obtained from MesoScale Discovery Technologies (MSD; Rockville, MD).
(§4) Cryopreserved human PBMCs (1×10e8 cells/ml) were thawed at 37° C. and resuspended in 25 mL warm cell culture medium. The cells were pelleted at 200×g (Beckman Avanti J-E) for 5 min and resuspended in 20 mL of fresh culture media. Cells were counted using a Cellometer (Nexcelcom Bioscience), adjusted to 2×10e6 cells, and incubated for 2 hours in an incubator set at 37° C., 5% CO2 to recover from cryopreservation. Compounds were serially diluted in DMSO at half-log steps to generate a 10-point dose range. Using a Bravo pipette equipped with a 384 well head (Agilent), 0.4 μL of compound was transferred to each well of a 384 well black, clear bottom plate (Greiner Bio-One, Germany) containing 30 μL of cell culture medium. Recovered PBMCs were then dispensed into the assay plate at 50 μL per well (100k cells/well) using the MicroFlow multichannel dispenser (Biotek). Final DMSO concentration was 0.5%. DMSO was used as the negative control. The plates were incubated for 24 hours at 37° C. PBMCs in the assay plate were pelleted by centrifugation (Beckman Avanti J-E) at 200×g for 5 min.
(§5) Using a Biomek FX 384 well pipetting station (Beckman), conditioned culture medium (CCM) from the assay plate was transferred to MSD capture plates customized for each cytokine. For IFNα and IL12-p40 detection, 25 μL and 20 μL of CCM were added directly to each capture plate, respectively. For TNFα detection, CCM was diluted 1:9 in fresh culture medium, and 20 μL of diluted CCM was used. Serially diluted calibration standards for each cytokine were used to generate standard curves and establish assay linearity. The plates were sealed and incubated overnight at 4° C. in a plate shaker (Titer Plate) set at 200 rpm. On the following day, antibodies specific for each cytokine were diluted 1:50 in MSD Diluent 100 antibody dilution buffer. Diluted antibodies were added to corresponding capture plates at 10 μL/well, and incubated at RT for 1-2 hrs in the shaker. The plates were washed with PBST buffer (3×, 60 μl/well) using a Biotek Multiflow plate washer. MSD Read Buffer diluted to 2× in deionized water and 35 μL/well was added via Biomek FX instrument. The plates were read immediately in a MSD6000 reader. Data were normalized to positive and negative controls in each assay plate. AC50 values represent compound concentrations at half-maximal effect based on normalized percent activation and calculated by non-linear regression using Pipeline Pilot software (Accelrys, San Diego, CA).

IL12p40 = assay: PBMC cytokine profiling assay, IL12-p40 induction
Experimental: as §1, §2, §3, §4, §5

IFNα = assay: PBMC cytokine profiling assay, IFNα induction
Experimental: as §1, §2, §3, §4, §5

Row | SMILES | AC50 (TNFα; Homo sapiens, PBMC, 24 h) | AC50 (IL12p40; Homo sapiens, PBMC, 24 h) | AC50 (IFNα; Homo sapiens, PBMC, 24 h) | AC50 (TNFα) | AC50 (IL12p40) | AC50 (IFNα)
1 | CCCC[C@H](CO)Nc1nc(N)nc2ccccc12 [Example 47B, (R)-2-((2-aminoquinazolin-4-yl)amino)hexan-1-ol] | 2.7 µM | 2 µM | > 50 µM |  |  | 
2 | CCCC[C@@](C)(CO)Nc1nc(N)nc2cccnc12 [Example 60, (S)-2-((2-aminopyrido[3,2-d]pyrimidin-4-yl)amino)-2-methylhexan-1-ol] | 2.6 µM | 2.3 µM | 7.9 µM |  |  | 
3 | Nc1nc(N[C@H](CO)CC2CC2)c2ncccc2n1 [Example 4B, (S)-2-((2-aminopyrido[3,2-d]pyrimidin-4-yl)amino)-3-cyclopropylpropan-1-ol] | 9.1 µM | 5.4 µM | 5.9 µM |  |  | 
4 | CCCC[C@@H](Nc1nc(N)nc2cccnc12)c1nnc[nH]1 [Example 56, (R)—N^4-(1-(4H-1,2,4-triazol-3-yl)pentyl)pyrido[3,2-d]pyrimidine-2,4-diamine] | 3.6 µM | 3.4 µM | 1.9 µM |  |  | 
5 | CCCC[C@@H](Nc1nc(N)nc2cccnc12)C(=O)NCCO [Example 54, (R)-2-((2-aminopyrido[3,2-d]pyrimidin-4-yl)amino)-N-(2-hydroxyethyl)hexanamide] | 34 µM | 42.5 µM | > 50 µM |  |  | 
6 | CCCC[C@H](CO)Nc1nc(N)nc2cc(F)cnc12 [Example 44, (R)-2-((2-amino-7-fluoropyrido[3,2-d]pyrimidin-4-yl)amino)hexan-1-ol] | 3 µM | 2.4 µM | > 50 µM |  |  | 
7 | CCC[C@@H](CO)Nc1nc(N)nc2cc(Cl)cnc12 [Example 19E, (S)-2-((2-amino-7-chloropyrido[3,2-d]pyrimidin-4-yl)amino)pentan-1-ol] | 3.3 µM | 2.5 µM | 21.6 µM |  |  | 
8 | Nc1nc(NCCCC(F)(F)F)c2ncccc2n1 [Example 29, N^4-(4,4,4-trifluorobutyl)pyrido[3,2-d]pyrimidine-2,4-diamine] | 18.3 µM | 15.5 µM | 3.9 µM |  |  | 
9 | C=Cc1cnc2c(N[C@@H](CO)CCCC)nc(N)nc2c1 [Example 70, (R)-2-((2-amino-7-vinylpyrido[3,2-d]pyrimidin-4-yl)amino)hexan-1-ol] | 3.3 µM | 2.7 µM | > 50 µM |  |  | 
10 | CCC[C@H](CO)Nc1nc(N)nc2cccnc12 [Example 8, (R)-2-((2-aminopyrido[3,2-d]pyrimidin-4-yl)amino)pentan-1-ol] | 20.2 µM | 19.4 µM | > 50 µM |  |  | 
11 | CCCCC[C@](C)(CO)Nc1nc(N)nc2cc(F)cnc12 [Example 112, (R)-2-((2-amino-7-fluoropyrido[3,2-d]pyrimidin-4-yl)amino)-2-methylheptan-1-ol] |  |  |  | 0.36 µM | 0.33 µM | > 50 µM
12 | CCC[C@H](Nc1nc(N)nc2cccnc12)C(=O)NC [Example 31, (S)-2-((2-aminopyrido[3,2-d]pyrimidin-4-yl)amino)-N-methylpentanamide] | 4.7 µM | 4.7 µM | 32.9 µM |  |  | 
13 | CCCC[C@@H](Nc1nc(N)nc2cccnc12)C(O)CF (single isomer, unassigned) [Example 88] | 0.4 µM | 0.37 µM | 35.6 µM |  |  | 
14 | CCCCC(Nc1nc(N)nc2cccnc12)C(C)O (stereo not drawn) [Example 103, 3-((2-aminopyrido[3,2-d]pyrimidin-4-yl)amino)heptan-2-ol] | 3.3 µM | 2.6 µM |  |  |  | 10.3 µM
15 | CCCC[C@@H](Nc1nc(N)nc2cccnc12)[C@@H](O)C(F)(F)F [Example 89, (2R,3R)-3-((2-aminopyrido[3,2-d]pyrimidin-4-yl)amino)-1,1,1-trifluoroheptan-2-ol] | 2.2 µM | 1.7 µM | > 50 µM |  |  | 
16 | CCCC[C@@H](CO)Nc1nc(N)nc2c(C)ccnc12 [Example 58, (S)-2-((2-amino-8-methylpyrido[3,2-d]pyrimidin-4-yl)amino)hexan-1-ol] | 3.9 µM | 3.8 µM | 4.1 µM |  |  | 
17 | CCCC[C@H](CCO)Nc1nc(N)nc2cccnc12 [Example 100, (R)-3-((2-aminopyrido[3,2-d]pyrimidin-4-yl)amino)heptan-1-ol] | 3.8 µM | 3.5 µM | 4.6 µM |  |  | 
18 | CCCC[C@@H](Nc1nc(N)nc2cccnc12)C(CF)NC(C)=O (stereo partly drawn) [Example 91, N-((3R)-3-((2-aminopyrido[3,2-d]pyrimidin-4-yl)amino)-1-fluoroheptan-2-yl)acetamide] | 2 µM | 1.9 µM | > 50 µM |  |  | 
19 | CCC[C@@H](CO)Nc1nc(N)nc2cccnc12 [Example 27C, (S)-2-((2-amino-[3,2-d]pyrimidin-4-yl)amino)pentan-1-ol] | 0.52 µM | 0.42 µM | 2 µM |  |  | 
20 | C=CC[C@H](CO)Nc1nc(N)nc2cccnc12 [Example 108, (R)-2-((2-aminopyrido[3,2-d]pyrimidin-4-yl)amino)pent-4-en-1-ol] | 38.7 µM | 22 µM | > 50 µM |  |  | 
21 | CCC[C@H](Nc1nc(N)nc2cccnc12)C(N)=O [Example 30B, (S)-2-((2-aminopyrido[3,2-d]pyrimidin-4-yl)amino)pentanamide] | 10.6 µM | 8.6 µM | > 50 µM |  |  | 
22 | CCCC[C@H](CO)Nc1nc(N)nc2cc(Br)cnc12 [Example 82, (R)-2-((2-amino-7-bromopyrido[3,2-d]pyrimidin-4-yl)amino)hexan-1-ol] | 16.6 µM | 14.3 µM | > 50 µM |  |  | 
23 | Nc1nc(N[C@@H](CO)CCCC(F)(F)F)c2ncccc2n1 [Example 99, (R)-2-((2-aminopyrido[3,2-d]pyrimidin-4-yl)amino)-6,6,6-trifluorohexan-1-ol] | 3.4 µM | 3.6 µM | > 50 µM |  |  | 
24 | CCCC[C@](C)(CN[C@@H](C)C(F)(F)F)Nc1nc(N)nc2cccnc12 [Example 118, N^4—((R)-2-methyl-1-(((S)-1,1,1-trifluoropropan-2-yl)amino)hexan-2-yl)pyrido[3,2-d]pyrimidine-2,4-diamine] | 9.3 µM | 9.1 µM | > 50 µM |  |  | 
25 | Nc1nc(N[C@H](CO)c2ccccc2)c2ncccc2n1 [Example 7, (S)-2-((2-aminopyrido[3,2-d]pyrimidin-4-yl)amino)-2-phenylethanol] | > 50 µM | > 50 µM | 34 µM |  |  | 
26 | CCCCC[C@](C)(CO)Nc1nc(N)nc2cc(F)cnc12 [Example 111, (R)-2-((2-amino-7-fluoropyrido[3,2-d]pyrimidin-4-yl)amino)-2-methylheptan-1-ol] | 0.61 µM | 0.47 µM |  |  |  | 19.8 µM
27 | CCC[C@@H](CO)Nc1nc(N)nc2cc(OC)cnc12 [Example 42B, (S)-2-((2-amino-7-methoxypyrido[3,2-d]pyrimidin-4-yl)amino)pentan-1-ol] | 1.1 µM | 0.9 µM | 3.6 µM |  |  | 
28 | CCCC[C@H](CO)Nc1nc(N)nc2cc(OCC)cnc12 [Example 106, (R)-2-((2-amino-7-ethoxypyrido[3,2-d]pyrimidin-4-yl)amino)hexan-1-ol] | 13.8 µM | 10.2 µM | > 50 µM |  |  | 
29 | CCCCC[C@](C)(CNC(C)=O)Nc1nc(N)nc2cccnc12 [Example 116, (R)—N-(2-((2-aminopyrido[3,2-d]pyrimidin-4-yl)amino)-2-methylheptyl)acetamide] | 0.036 µM | 0.11 µM | > 50 µM |  |  | 
